Source: US11192877B2, “3-(5-hydroxy-1-oxoisoindolin-2-yl)piperidine-2,6-dione derivatives and uses thereof” (Novartis AG, priority 2018, dated 2021)
Read-outs that look alike come from different tables or passages of the source.

Molecular target: IKZF2 (Helios) (Homo sapiens, UniProt Q96SW2+Q9UKS7)
Experiment: Prolabel quantification of IKZF2 protein levels in 293GT cells
Type: cell-based
Conditions: 24 h, read-out: IKZF2 % protein reduction at 10 μM, 24 h
[1] = Pro-label assay, 293GT cells, 10 μM

IKZF2 (Helios), sequence (Q9UKS7 whole entry): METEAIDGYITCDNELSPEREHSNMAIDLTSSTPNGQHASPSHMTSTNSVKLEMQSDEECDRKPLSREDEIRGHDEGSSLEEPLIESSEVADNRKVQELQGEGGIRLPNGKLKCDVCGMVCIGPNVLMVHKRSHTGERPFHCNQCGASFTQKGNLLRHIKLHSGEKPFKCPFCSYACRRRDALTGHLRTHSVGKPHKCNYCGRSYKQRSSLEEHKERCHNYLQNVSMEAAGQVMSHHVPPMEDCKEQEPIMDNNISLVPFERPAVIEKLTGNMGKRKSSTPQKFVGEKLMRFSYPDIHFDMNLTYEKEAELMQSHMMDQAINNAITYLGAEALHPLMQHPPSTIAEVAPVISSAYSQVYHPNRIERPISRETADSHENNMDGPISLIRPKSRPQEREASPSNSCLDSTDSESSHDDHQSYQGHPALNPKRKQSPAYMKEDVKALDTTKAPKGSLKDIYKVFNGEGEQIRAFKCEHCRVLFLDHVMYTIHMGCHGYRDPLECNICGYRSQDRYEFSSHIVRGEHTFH
IKZF2 (Helios), sequence (Q96SW2 whole entry): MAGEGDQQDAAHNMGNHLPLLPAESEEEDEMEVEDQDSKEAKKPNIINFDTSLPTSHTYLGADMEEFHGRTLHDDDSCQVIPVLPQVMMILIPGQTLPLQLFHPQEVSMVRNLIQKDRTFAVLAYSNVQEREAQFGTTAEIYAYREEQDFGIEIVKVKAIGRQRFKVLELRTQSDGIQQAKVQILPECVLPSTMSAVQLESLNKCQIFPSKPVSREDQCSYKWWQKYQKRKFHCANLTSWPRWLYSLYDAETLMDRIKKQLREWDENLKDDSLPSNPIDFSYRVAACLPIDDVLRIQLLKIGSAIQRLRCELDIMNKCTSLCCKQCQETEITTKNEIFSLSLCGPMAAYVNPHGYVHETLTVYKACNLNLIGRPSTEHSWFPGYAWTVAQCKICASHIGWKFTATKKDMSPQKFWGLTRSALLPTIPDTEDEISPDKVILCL
IKZF2 (Helios), sequence (Q16531 whole entry partner): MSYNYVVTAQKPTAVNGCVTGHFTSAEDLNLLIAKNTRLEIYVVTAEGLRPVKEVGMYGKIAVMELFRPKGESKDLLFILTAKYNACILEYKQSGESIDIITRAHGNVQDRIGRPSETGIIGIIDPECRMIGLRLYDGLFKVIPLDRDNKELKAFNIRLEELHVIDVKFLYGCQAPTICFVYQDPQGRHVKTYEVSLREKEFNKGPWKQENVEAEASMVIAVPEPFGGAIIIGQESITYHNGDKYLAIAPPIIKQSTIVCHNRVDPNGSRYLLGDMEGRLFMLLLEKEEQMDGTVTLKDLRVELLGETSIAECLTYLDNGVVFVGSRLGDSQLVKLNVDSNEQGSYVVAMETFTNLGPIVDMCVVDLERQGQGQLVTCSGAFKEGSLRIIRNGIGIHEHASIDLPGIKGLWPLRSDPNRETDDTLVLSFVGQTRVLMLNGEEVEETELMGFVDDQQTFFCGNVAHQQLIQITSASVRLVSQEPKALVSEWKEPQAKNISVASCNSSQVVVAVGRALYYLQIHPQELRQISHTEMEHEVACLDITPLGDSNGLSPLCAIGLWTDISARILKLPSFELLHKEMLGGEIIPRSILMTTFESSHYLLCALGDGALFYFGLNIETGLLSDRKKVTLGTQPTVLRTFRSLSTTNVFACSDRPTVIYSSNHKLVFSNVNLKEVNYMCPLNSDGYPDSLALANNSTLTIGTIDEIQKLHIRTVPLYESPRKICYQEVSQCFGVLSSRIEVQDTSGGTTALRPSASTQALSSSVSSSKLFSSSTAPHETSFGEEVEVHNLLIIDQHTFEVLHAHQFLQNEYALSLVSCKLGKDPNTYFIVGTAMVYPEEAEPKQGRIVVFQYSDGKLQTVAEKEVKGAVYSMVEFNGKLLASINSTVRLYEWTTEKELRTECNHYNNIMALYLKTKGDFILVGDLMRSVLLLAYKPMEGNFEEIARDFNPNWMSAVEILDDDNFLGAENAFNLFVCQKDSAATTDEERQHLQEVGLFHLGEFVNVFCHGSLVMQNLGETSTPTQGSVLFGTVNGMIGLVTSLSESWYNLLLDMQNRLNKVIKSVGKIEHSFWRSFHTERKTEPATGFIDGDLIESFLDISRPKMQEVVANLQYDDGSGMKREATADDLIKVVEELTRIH

Row | SMILES | IKZF2 % protein reduction at 10 µM [1] [%] | IKZF2 % protein reduction at 10 µM [%]
1 | CC(C)(O)CCN[C@H]1CCCC[C@@H]1Oc1ccc2c(c1)CN(C1CCC(=O)NC1=O)C2=O (stereo partly drawn) [I-86, 3-(5-(((1S,2S)-2-((3-hydroxy-3-methylbutyl)amino)cyclohexyl)oxy)-1-oxoisoindolin-2-yl)piperidine-2,6-dione] | 76 | –
2 | CC1(CN[C@H]2CCCC[C@@H]2Oc2ccc3c(c2)CN(C2CCC(=O)NC2=O)C3=O)COC1 (stereo partly drawn) [I-87, 3-(5-(((1S,2S)-2-(((3-methyloxetan-3-yl)methyl)amino)cyclohexyl)oxy)-1-oxoisoindolin-2-yl)piperidine-2,6-dione] | 79 | –
3 | COC1CN([C@H]2CCCC[C@@H]2Oc2ccc3c(c2)CN(C2CCC(=O)NC2=O)C3=O)C1 (stereo partly drawn) [I-89, 3-(5-(((1S,2S)-2-(3-methoxyazetidin-1-yl)cyclohexyl)oxy)-1-oxoisoindolin-2-yl)piperidine-2,6-dione] | 82 | –
4 | Cc1cccc(CN[C@H]2CCCC[C@@H]2Oc2ccc3c(c2)CN(C2CCC(=O)NC2=O)C3=O)n1 (stereo partly drawn) [I-90, 3-(5-(((1S,2S)-2-(((6-methylpyridin-2-yl)methyl)amino)cyclohexyl)oxy)-1-oxoisoindolin-2-yl)piperidine-2,6-dione] | – | 57
5 | COc1ccc(CN[C@H]2CCCC[C@@H]2Oc2ccc3c(c2)CN(C2CCC(=O)NC2=O)C3=O)cn1 (stereo partly drawn) [I-92, 3-(5-(((1S,2S)-2-(((6-methoxypyridin-3-yl)methyl)amino)cyclohexyl)oxy)-1-oxoisoindolin-2-yl)piperidine-2,6-dione] | 60 | –
6 | CC(C)(O)CN[C@H]1CCCC[C@@H]1Oc1ccc2c(c1)CN(C1CCC(=O)NC1=O)C2=O (stereo partly drawn) [I-93, 3-(5-(((1S,2S)-2-((2-hydroxy-2-methylpropyl)amino)cyclohexyl)oxy)-1-oxoisoindolin-2-yl)piperidine-2,6-dione] | 60 | –
7 | O=C1CCC(N2Cc3cc(O[C@H]4CCCC[C@@H]4NCC4CCOCC4)ccc3C2=O)C(=O)N1 (stereo partly drawn) [I-98, 3-(1-oxo-5-(((1S,2S)-2-(((tetrahydro-2H-pyran-4-yl)methyl)amino)cyclohexyl)oxy)isoindolin-2-yl)piperidine-2,6-dione] | 80 | –
8 | CO[C@H]1CC[C@H](CN[C@H]2CCCC[C@@H]2Oc2ccc3c(c2)CN(C2CCC(=O)NC2=O)C3=O)CC1 (stereo partly drawn) [I-101, 3-(5-(((1S,2S)-2-((((1r,4S)-4-methoxycyclohexyl)methyl)amino)cyclohexyl)oxy)-1-oxoisoindolin-2-yl)piperidine-2,6-dione] | 73 | –
9 | O=C1CCC(N2Cc3cc(O[C@H]4CCCC[C@@H]4NCc4cncnc4)ccc3C2=O)C(=O)N1 (stereo partly drawn) [I-103, 3-(1-oxo-5-(((1S,2S)-2-((pyrimidin-5-ylmethyl)amino)cyclohexyl)oxy)isoindolin-2-yl)piperidine-2,6-dione] | 54 | –
10 | O=C1CCC(N2Cc3cc(O[C@H]4CCCC[C@@H]4NCCC4CCOCC4)ccc3C2=O)C(=O)N1 (stereo partly drawn) [I-104, 3-(1-oxo-5-(((1S,2S)-2-((2-(tetrahydro-2H-pyran-4-yl)ethyl)amino)cyclohexyl)oxy)isoindolin-2-yl)piperidine-2,6-dione] | 87 | –
11 | O=C1CCC(N2Cc3cc(O[C@H]4CCCC[C@@H]4NC4CC5(CCOCC5)C4)ccc3C2=O)C(=O)N1 (stereo partly drawn) [I-110, 3-(5-(((1S,2S)-2-((7-oxaspiro[3.5]nonan-2-yl)amino)cyclohexyl)oxy)-1-oxoisoindolin-2-yl)piperidine-2,6-dione] | 89 | –
12 | COc1ccccc1OC1CN([C@H]2CCCC[C@@H]2Oc2ccc3c(c2)CN(C2CCC(=O)NC2=O)C3=O)C1 (stereo partly drawn) [I-113, 3-(5-(((1S,2S)-2-(3-(2-methoxyphenoxy)azetidin-1-yl)cyclohexyl)oxy)-1-oxoisoindolin-2-yl)piperidine-2,6-dione] | 93 | –
13 | O=C1CCC(N2Cc3cc(O[C@H]4CCCC[C@@H]4NCc4cnc5ccnn5c4)ccc3C2=O)C(=O)N1 (stereo partly drawn) [I-114, 3-(1-oxo-5-(((1S,2S)-2-((pyrazolo[1,5-a]pyrimidin-6-ylmethyl)amino)cyclohexyl)oxy)isoindolin-2-yl)piperidine-2,6-dione] | 54 | –
14 | O=C1CCC(N2Cc3cc(O[C@H]4CCCC[C@@H]4NC4CCC(F)(F)CC4)ccc3C2=O)C(=O)N1 (stereo partly drawn) [I-115, 3-(5-(((1S,2S)-2-((4,4-difluorocyclohexyl)amino)cyclohexyl)oxy)-1-oxoisoindolin-2-yl)piperidine-2,6-dione] | 90 | –
15 | O=C1CCC(N2Cc3cc(O[C@H]4CCCC[C@@H]4NCc4ccc(F)cc4F)ccc3C2=O)C(=O)N1 (stereo partly drawn) [I-116, 3-(5-(((1S,2S)-2-((2,4-difluorobenzyl)amino)cyclohexyl)oxy)-1-oxoisoindolin-2-yl)piperidine-2,6-dione] | 65 | –
16 | N#CC12CC(CN[C@H]3CCCC[C@@H]3Oc3ccc4c(c3)CN(C3CCC(=O)NC3=O)C4=O)(C1)C2 (stereo partly drawn) [I-120, 3-((((1S,2S)-2-((2-(2,6-dioxopiperidin-3-yl)-1-oxoisoindolin-5-yl)oxy)cyclohexyl)amino)methyl)bicyclo[1.1.1]pentane-1-carbonitrile] | 66 | –
17 | O=C1CCC(N2Cc3cc(O[C@H]4CCCC[C@@H]4N4CC(Oc5cccc(F)c5)C4)ccc3C2=O)C(=O)N1 (stereo partly drawn) [I-121, 3-(5-(((1S,2S)-2-(3-(3-fluorophenoxy)azetidin-1-yl)cyclohexyl)oxy)-1-oxoisoindolin-2-yl)piperidine-2,6-dione] | 94 | –

Now from value to compound, other results behind:

Row | IKZF2 % protein reduction at 10 µM [1] [%] | SMILES | IKZF2 % protein reduction at 10 µM [%]
18 | 57 | COC1(C)CCN([C@H]2CCCC[C@@H]2Oc2ccc3c(c2)CN(C2CCC(=O)NC2=O)C3=O)CC1 (stereo partly drawn) [I-88, 3-(5-(((1S,2S)-2-(4-methoxy-4-methylpiperidin-1-yl)cyclohexyl)oxy)-1-oxoisoindolin-2-yl)piperidine-2,6-dione] | –
19 | 58 | COc1ccc(CN[C@H]2CCCC[C@@H]2Oc2ccc3c(c2)CN(C2CCC(=O)NC2=O)C3=O)nc1 (stereo partly drawn) [I-91, 3-(5-(((1S,2S)-2-(((5-methoxypyridin-2-yl)methyl)amino)cyclohexyl)oxy)-1-oxoisoindolin-2-yl)piperidine-2,6-dione] | –
20 | 84 | CC1(C#N)CC(CNC2CCCCC2Oc2ccc3c(c2)CN(C2CCC(=O)NC2=O)C3=O)C1 [I-95, (1R,3s)-3-((((1S,2S)-2-((2-(2,6-dioxopiperidin-3-yl)-1-oxoisoindolin-5-yl)oxy)cyclohexyl)amino)methyl)-1-methylcyclobutane-1-carbonitrile] | –
21 | 81 | O=C1CCC(N2Cc3cc(O[C@H]4CCC[C@@H]4N4CCC(O)CC4)ccc3C2=O)C(=O)N1 (stereo partly drawn) [I-96, 3-(5-(((1S,2S)-2-(4-hydroxypiperidin-1-yl)cyclopentyl)oxy)-1-oxoisoindolin-2-yl)piperidine-2,6-dione] | –
22 | 36 | O=C1CCC(N2Cc3cc(O[C@H]4CCCC[C@@H]4N4CCCCC4)ccc3C2=O)C(=O)N1 (stereo partly drawn) [I-97, 3-(1-oxo-5-(((1S,2S)-2-(piperidin-1-yl)cyclohexyl)oxy)isoindolin-2-yl)piperidine-2,6-dione] | –
23 | 73 | CC1(CN[C@H]2CCCC[C@@H]2Oc2ccc3c(c2)CN(C2CCC(=O)NC2=O)C3=O)CCOCC1 (stereo partly drawn) [I-102, 3-(5-(((1S,2S)-2-(((4-methyltetrahydro-2H-pyran-4-yl)methyl)amino)cyclohexyl)oxy)-1-oxoisoindolin-2-yl)piperidine-2,6-dione] | –
24 | 52 | O=C1CCC(N2Cc3cc(O[C@H]4CCCC[C@@H]4N4CCC5(CC4)COC5)ccc3C2=O)C(=O)N1 (stereo partly drawn) [I-105, 3-(5-(((1S,2S)-2-(2-oxa-7-azaspiro[3.5]nonan-7-yl)cyclohexyl)oxy)-1-oxoisoindolin-2-yl)piperidine-2,6-dione] | –
25 | 51 | COC1(CN[C@H]2CCCC[C@@H]2Oc2ccc3c(c2)CN(C2CCC(=O)NC2=O)C3=O)CCOCC1 (stereo partly drawn) [I-106, 3-(5-(((1S,2S)-2-(((4-methoxytetrahydro-2H-pyran-4-yl)methyl)amino)cyclohexyl)oxy)-1-oxoisoindolin-2-yl)piperidine-2,6-dione] | –
26 | 89 | CC1(C)CC(CN[C@H]2CCCC[C@@H]2Oc2ccc3c(c2)CN(C2CCC(=O)NC2=O)C3=O)CCO1 (stereo partly drawn) [I-107, 3-(5-(((1S,2S)-2-(((2,2-dimethyltetrahydro-2H-pyran-4-yl)methyl)amino)cyclohexyl)oxy)-1-oxoisoindolin-2-yl)piperidine-2,6-dione] | –
27 | 59 | N#CC1(CN[C@H]2CCCC[C@@H]2Oc2ccc3c(c2)CN(C2CCC(=O)NC2=O)C3=O)CCC1 (stereo partly drawn) [I-111, 1-((((1S,2S)-2-((2-(2,6-dioxopiperidin-3-yl)-1-oxoisoindolin-5-yl)oxy)cyclohexyl)amino)methyl)cyclobutane-1-carbonitrile] | –
28 | 95 | O=C1CCC(N2Cc3cc(O[C@H]4CCCC[C@@H]4N4CC(Oc5ccccc5Cl)C4)ccc3C2=O)C(=O)N1 (stereo partly drawn) [I-112, 3-(5-(((1S,2S)-2-(3-(2-chlorophenoxy)azetidin-1-yl)cyclohexyl)oxy)-1-oxoisoindolin-2-yl)piperidine-2,6-dione] | –
29 | 84 | O=C1CCC(N2Cc3cc(O[C@H]4CCCC[C@@H]4NCC4CC(F)(F)C4)ccc3C2=O)C(=O)N1 (stereo partly drawn) [I-122, 3-(5-(((1S,2S)-2-(((3,3-difluorocyclobutyl)methyl)amino)cyclohexyl)oxy)-1-oxoisoindolin-2-yl)piperidine-2,6-dione] | –
30 | 82 | COC1CCC(CN[C@H]2CCCC[C@@H]2Oc2ccc3c(c2)CN(C2CCC(=O)NC2=O)C3=O)CC1 (stereo partly drawn) [I-123, 3-(5-(((1S,2S)-2-(((4-methoxycyclohexyl)methyl)amino)cyclohexyl)oxy)-1-oxoisoindolin-2-yl)piperidine-2,6-dione] | –
31 | 70 | N#Cc1ccc(CN[C@H]2CCCC[C@@H]2Oc2ccc3c(c2)CN(C2CCC(=O)NC2=O)C3=O)cc1 (stereo partly drawn) [I-129, 4-((((1S,2S)-2-((2-(2,6-dioxopiperidin-3-yl)-1-oxoisoindolin-5-yl)oxy)cyclohexyl)amino)methyl)benzonitrile] | –
32 | 50 | CN(Cc1ccc(C#N)cc1)[C@H]1CCCC[C@@H]1Oc1ccc2c(c1)CN(C1CCC(=O)NC1=O)C2=O (stereo partly drawn) [I-130, 4-((((1S,2S)-2-((2-(2,6-dioxopiperidin-3-yl)-1-oxoisoindolin-5-yl)oxy)cyclohexyl)(methyl)amino)methyl)benzonitrile] | –
